Results reported in US20100160454A1, “ANTIMICROBIAL AGENTS, COMPOSITIONS AND PRODUCTS CONTAINING THE SAME, AND METHODS OF USING THE COMPOSITIONS AND PRODUCTS” (Eastman Chemical Company, priority 2008, published 2010).

Legend:
[1] = tested on: Aspergillus niger ATCC 16404; assay: Determination of MIC and MLC in test broth; format: cell-based; conditions: Aspergillus niger ATCC 16404, 30-day subculture
Procedure: (§1) Two antimicrobial endpoints were investigated. The minimum inhibitory concentration (MIC), which identifies the lowest concentration of test material at which growth for a specific organism is inhibited (by a minimum of 3 log units), reflects “biostatic activity”. The minimum lethal concentration (MLC), or lowest concentration that kills the organism and at which subculturing with growth is not possible, reflects “biocidal activity”. 1,4-CHDM and propylene glycol (PG) were added to previously sterilized screw-cap glass tubes and diluted with Peptone Water Broth with 2 wt % Dextrose (=test broth) to the following dilutions (weight percent): 0.05, 0.075, 0.125, 0.25, 0.5, 0.75, 1.25, 2.5, 5.0, 7.5, 10.0, 15.0, 20.0.
(§2) Each of 12 sets of the above test tubes were challenged with specific organisms (see Table 5) to produce a contamination of between 1.0×10^5 cfu/g and 1.0×10^6 cfu/g in the test broth to which no 1,4-CHDM or propylene glycol had been added. These challenge organisms were prepared in TSB broth, allowed to grow for 72 hours at 35° C.+/−2° C., centrifuged at 2500 rpm for 5 minutes, and the supernatant broth was removed. The microbial pellet was then re-diluted with sterile buffered water to a turbidity that matched previous 1.0×10^6 cfu/g concentrations of that organism's specific growth curve. This challenge was repeated on day 3. Plate counts of both challenges enumerated to within 1.0×10^5+/−5,000 cfu/g after 7 days incubation at 35° C.+/−2° C.
(§3) These tubes were mixed well by inversion (minimum of 25 inversions) and incubated at 35° C.+/−2° C. The tubes were inverted again (minimum of 25 times) on the third and seventh day of incubation and prior to each subculture.
(§4) These subcultures were incubated under optimal conditions and nutrition for no less than 5 days. Subcultures of 0.1 ml, undiluted and diluted 1:10, 1:100, . . . , and 1:10,000, were transferred to plates using the spread plate method onto Plate Count Agar; and SAB Dextrose Agar in addition for the Candida and Aspergillus species; and incubated as follows: 35° C.+/−2° C. for the Plate Count Agar and 22° C.+/−2° C. for the SAB Dextrose plates of Candida albicans and Aspergillus niger. Negative results were not reported before 7 days incubation and counts were performed after no less than 5 days incubation. Counts of Candida and Aspergillus species were made on the agar representing the highest count observed, usually the SAB Dextrose.

[2] = tested on: Bacillus subtilis ATCC 6633; assay: Determination of MIC and MLC in test broth; format: cell-based; conditions: Bacillus subtilis ATCC 6633, 30-day subculture
Procedure: as §1, §2, §3, §4

[3] = tested on: Burkholderia cepacia ATCC 25416; assay: Determination of MIC and MLC in test broth; format: cell-based; conditions: Burkholderia cepacia ATCC 25416, 30-day subculture
Procedure: as §1, §2, §3, §4

Proteus vulgaris = assay: Determination of MIC and MLC in test broth; format: cell-based; conditions: 30-day subculture
Procedure: as §1, §2, §3, §4

[4] = tested on: Staphylococcus aureus ATCC 25923; assay: Determination of MIC and MLC in test broth; format: cell-based; conditions: Staphylococcus aureus ATCC 25923, 30-day subculture
Procedure: as §1, §2, §3, §4

[5] = Water extraction of 1,4-CHDM from biodiesel, gas chromatography; format: physicochemical; conditions: soy biodiesel with theoretical 0.024 wt % CHDM, 0.90% water added, 3 days, centrifuged
Procedure: A solution of 59.5 wt % 1,4-CHDM in ethoxydiglycol (Eastman DE solvent) was prepared by weighing into a vial 1.36 g ethoxydiglycol and 2.00 g 1,4-CHDM. The mixture was heated to 55° C. to melt the 1,4-CHDM, mixed on a vortex mixer, then placed on a rocker mixer overnight at room temperature to allow all of the 1,4-CHDM to dissolve.
1,4-CHDM was added to soy biodiesel as follows: 60.00 g soy biodiesel was weighed into 4-oz jar. 0.0246 g of the above CHDM/DE solution was weighed into the biodiesel. The sample was mixed using a magnetic stirrer. There was no visible separation after mixing and the biodiesel remained clear. The theoretical amount of CHDM in the biodiesel is 0.024 wt %. 5.00 g was removed from the sample for analysis.
To make a biodiesel mixture containing 0.90% water, 0.50 g deionized water was added to the remaining 55.0 g 1,4-CHDM/DE/biodiesel mixture and mixed with a magnetic stirrer. The mixture became cloudy when stirred and also contained visible water droplets. The mixture was allowed to sit undisturbed for 3 days, during which time a white aqueous layer appeared on the bottom and the biodiesel (top layer) still remained cloudy. The mixture was centrifuged to separate as much water as possible from the biodiesel. […] The 1,4-CHDM/DE/biodiesel mixtures before and after water extraction and the bottom aqueous layer were analyzed by gas chromatography for 1,4-CHDM. […]

SMILES | MIC 30 DAYS [1] [wt %] | MLC 30 DAYS [1] [wt %] | MIC 30 DAYS [2] [wt %] | MLC 30 DAYS [2] [wt %] | MIC 30 DAYS [3] [wt %] | MLC 30 DAYS [3] [wt %] | MIC 30 DAYS (Proteus vulgaris) [wt %] | MLC 30 DAYS (Proteus vulgaris) [wt %] | MIC 30 DAYS [4] [wt %] | MLC 30 DAYS [4] [wt %] | 1,4-CHDM content of the aqueous bottom layer [5] [wt %]
OCC1CCC(CO)CC1 (stereo not drawn) [1,4-CHDM, 1,4-cyclohexanedimethanol] | 2.5 | >20 | 2.5 | >20 | 1.25 | 20 | 2.5 | >20 | 5 | >20 | 0.38
CC(O)CO (stereo not drawn) [PG, propylene glycol] | 20 | >20 | 10 | >20 | 10 | >20 | 20 | >20 | 20 | >20 | 
